Earlier results, collected in US20230172202A1, “INSECT AND NON-INSECT ARTHROPOD PEST REPELLENT COMPOSITIONS AND METHODS” (Livful Inc., priority 2021, published 2023).

Columns and labels:
mosquitos = conditions: 25% active ingredient (IR3535 in ethanol); human subjects, field
[1] = according to the manufacturer (Merck KGaA)

| SMILES | mean complete protection time (mean CPT) (mosquitos) | ideal pH for IR3535 [1] |
| --- | --- | --- |
| CCN(CC)C(=O)c1cccc(C)c1 [DEET, N,N-diethyl-m-toluamide] | 5.6 h | – |
| CCCCN(CCC(=O)OCC)C(C)=O [IR3535®, ethyl butylacetylaminopropionate] | 3.0 h | 6.0-6.5 |
